Values after ≈ are worked out from the molar mass of the structure shown. Numbered stars: 1 amine (or outer) side, 2 acyl side, 3 side chain; on linkers, the order of the positions; unused ones are H or OH. Bridge positions count the residues as written; N and C are the ends. Square brackets hold non-standard residues; d marks the D form. Peptide text beside a SMILES is read from it. * marks the point of attachment. hTyr(3S-OH,4S-OH,3'-OSO3H) = N[C@H](C(=O)O)[C@H](O)[C@@H](O)c1ccc(O)c(OS(=O)(=O)O)c1; pTerphenylCO(4''-OnC5H11) = CCCCCOc1ccc(-c2ccc(-c3ccc(C(=O)*)cc3)cc2)cc1; Orn(4R-OH,5R-OH) = O=C([C@H](C[C@@H](O)[C@@H](O)N[*:3])N[*:1])[*:2]; hTyr(3S-OH,4S-OH) = N[C@H](C(=O)O)[C@H](O)[C@@H](O)c1ccc(O)cc1; Pro(3S-OH,4S-Me) = C[C@H]1CN[C@H](C(=O)O)[C@H]1O; X1 = CCCCCOc1ccc(-c2cc(-c3ccc(C(=O)*)cc3)no2)cc1; Gln(3R-OH) = NC(=O)C[C@@H](O)[C@H](N)C(=O)O; Hyp = O=C(O)[C@@H]1C[C@@H](O)CN1
Assays:
[1] = system: C. albicans and A. fumigatus cells; assay: Pretreatment with unlabeled antifungal drug followed by probe labeling; format: cell-based, Candida albicans, Aspergillus fumigatus; conditions: for effect of pretreatment on CSF-BOD labeling: pretreatment C. albicans 1 h, A. fumigatus 2 h, azoles at one dilution below the MIC, then CSF-BOD; for effect of pretreatment on labeling of cells by POS-BOD: pretreatment with unlabeled drug, then POS-BOD
Text: To illustrate the potential of CSF-BOD and POS-BOD for visualizing fungal cells, the reagent was used to probe for the presence of Candida and Aspergillus species in a variety of matrices including solid and liquid growth media. The clinical A. fumigatus wild type strain R21 and Candida albicans ATCC strain 90028 were used for all the experiments. For Aspergillus, one drop of yeast extract peptone dextrose (YPD) agar was placed in the upper right corner of each well of a 15-well multitest slide followed by the addition of 10 μl of saline containing 105 conidia of R21. The slide was placed in a sterile petri dish with distilled water to provide a moist environment and incubated in a 37° C. incubator for 10-16 hours to facilitate germination and growth of hyphal elements. A 10 μl aliquot of CSF-BOD (170 ng/ml) or POS-BOD (150 ng/ml) was added to each well and incubated for 6 h at 37° C., followed by washing 3 times with sterile water and drying by vacuum. For Candida, an overnight culture of C. albicans was grown, washed by centrifugation and resuspended in dH2O. The yeast cells were added to RPMI and incubated at 200 rpm for 1 h at 37° C. to form germ tubes before being washed and resuspended in a 1 ml solution of CSF-BOD (120 ng/mil) or POS-BOD (150 ng/ml). The cells with drug were incubated again at 200 rpm for 1 h at 37° C., washed and resuspended in 50 ml of dH2O. A 15 well slide was prepared using a poly-L-lysine to tightly adhere cells to the wells. A 10 μL aliquot of Candida cells was placed on each well and incubated for 10 minutes, aspirated off, and 1 μL Slow Fade Antifade reagent was added to prolong the fluorescent life and moisture level of the cells on the each slide. Each slide was observed under 100× magnification with the total internal reflection objective lens (TIRF) of a Nikon Eclipse 90i fluorescent microscope. The 15 wells of the slides were examined individually using Volocity 3D Image Analysis Software (PerkinElmer). Individual cells, hyphal elements and clusters of cells were visualized, analyzed, and captured in bright field lighting and repeated under a Green Fluorescent Protein (GFP) light setting.

[2] = system: A. fumigatus wild type strain R21; assay: Cell labeling with fluorescent probe, fluorescence microscopy; format: cell-based, Aspergillus fumigatus; conditions: control, species not given
Text: To illustrate the potential of CSF-BOD and POS-BOD for visualizing fungal cells, the reagent was used to probe for the presence of Candida and Aspergillus species in a variety of matrices including solid and liquid growth media. The clinical A. fumigatus wild type strain R21 and Candida albicans ATCC strain 90028 were used for all the experiments. For Aspergillus, one drop of yeast extract peptone dextrose (YPD) agar was placed in the upper right corner of each well of a 15-well multitest slide followed by the addition of 10 μl of saline containing 105 conidia of R21. The slide was placed in a sterile petri dish with distilled water to provide a moist environment and incubated in a 37° C. incubator for 10-16 hours to facilitate germination and growth of hyphal elements. A 10 μl aliquot of CSF-BOD (170 ng/ml) or POS-BOD (150 ng/ml) was added to each well and incubated for 6 h at 37° C., followed by washing 3 times with sterile water and drying by vacuum. For Candida, an overnight culture of C. albicans was grown, washed by centrifugation and resuspended in dH2O. […] Individual cells, hyphal elements and clusters of cells were visualized, analyzed, and captured in bright field lighting and repeated under a Green Fluorescent Protein (GFP) light setting.

C. albicans = assay: Antifungal activity (MIC) of labeled and unlabeled caspofungin; format: cell-based; conditions: Candida albicans
Procedure: A derivative of CSF using BODIPY (BOD), an analog that resembles fluorescein but is smaller and more hydrophobic, was produced to test the CSF-BOD with various fungal pathogens. BODIPY-succinimidate was incubated with pure CSF in the presence of triethylamine as proton acceptor in DMF. The crude product was purified by TLC silica gel chromatography and characterized using mass spectroscopy, fluorescence and UV spectroscopy. The modified agent retained its specificity and sensitivity to the fungal target. […] BODIPY coupled to posaconazole (POS) was formed by modifying a single hydroxyl group of posaconazole with succinic anhydride (FIG. 6).

| Compound | effect of pretreatment on CSF-BOD labeling [1] | effect of pretreatment on labeling of cells by POS-BOD [1] | labeling by unconjugated drug or dye alone [2] | MIC (C. albicans) [µg/mL] |
| --- | --- | --- | --- | --- |
| OC(Cn1cncn1)(Cn1cncn1)c1ccc(F)cc1F [fluconazole] | no effect | – | – | – |
| CCCCCOc1ccc(-c2ccc(-c3ccc(C(=O)N[C@H]4C[C@@H](O)[C@@H](O)NC(=O)[C@@H]5[C@@H](O)[C@@H](C)CN5C(=O)[C@H]([C@@H](C)O)NC(=O)[C@H]([C@H](O)[C@@H](O)c5ccc(O)cc5)NC(=O)[C@@H]5C[C@@H](O)CN5C(=O)[C@H]([C@@H](C)O)NC4=O)cc3)cc2)cc1 [anidulafungin] ({pTerphenylCO(4''-OnC5H11)}-[Orn(4R-OH,5R-OH)]T[Hyp][hTyr(3S-OH,4S-OH)]T[Pro(3S-OH,4S-Me)]; lactam 1-C) | eliminated the labeling | – | – | – |
| C[C@@H](c1ncncc1F)[C@](O)(Cn1cncn1)c1ccc(F)cc1F [voriconazole] | no effect | greatly diminished or eliminated the fluorescence signal | – | – |
| CC[C@H](C)C[C@H](C)CCCCCCCCC(=O)N[C@H]1C[C@@H](O)[C@@H](NCCN)NC(=O)[C@@H]2[C@@H](O)CCN2C(=O)[C@H]([C@H](O)CCN)NC(=O)[C@H]([C@H](O)[C@@H](O)c2ccc(O)cc2)NC(=O)[C@@H]2C[C@@H](O)CN2C(=O)[C@H]([C@@H](C)O)NC1=O [caspofungin] | intensified the fluorescence | little effect | failed to produce any labeling | 0.06 (≈ 0.0549 µM) |
| CC[C@@H]([C@H](C)O)n1ncn(-c2ccc(N3CCN(c4ccc(OC[C@@H]5CO[C@@](Cn6cncn6)(c6ccc(F)cc6F)C5)cc4)CC3)cc2)c1=O [posaconazole] | no effect | greatly diminished or eliminated the fluorescence signal | – | – |
| CCC(C)n1ncn(-c2ccc(N3CCN(c4ccc(OCC5COC(Cn6cncn6)(c6ccc(Cl)cc6Cl)O5)cc4)CC3)cc2)c1=O (stereo not shown) [itraconazole] | no effect | – | – | – |
| boron-dipyrromethene [BODIPY] | – | – | failed to produce any labeling | – |
| CCCCCOc1ccc(-c2cc(-c3ccc(C(=O)N[C@H]4C[C@@H](O)[C@@H](O)NC(=O)[C@@H]5[C@@H](O)[C@@H](C)CN5C(=O)[C@H]([C@H](O)CC(N)=O)NC(=O)[C@H]([C@H](O)[C@@H](O)c5ccc(O)c(OS(=O)(=O)O)c5)NC(=O)[C@@H]5C[C@@H](O)CN5C(=O)[C@H]([C@@H](C)O)NC4=O)cc3)no2)cc1 [micafungin] (X1-[Orn(4R-OH,5R-OH)]T[Hyp][hTyr(3S-OH,4S-OH,3'-OSO3H)][Gln(3R-OH)][Pro(3S-OH,4S-Me)]; lactam 1-C) | eliminated the labeling | – | – | – |

Source: patent US20150098905A1, “METHODS TO DETECT A FUNGAL CELL” (priority 2012, published 2015)
